Measurements: patent publication US7989464B2, “mGluR1 antagonists as therapeutic agents” (Schering Corporation, priority 2004, dated 2011)

The molecules below were run against T1, hmGluR1 receptor (Homo sapiens, UniProt Q13255) (assay: IC50 determination: intracellular calcium mobilization (FLIPR) upon Quisqualate stimulation in CHO cells stably expressing hmGluR1). Conditions: against Quisqualate 1 μM (EC80), FLIPR calcium mobilization, read-out: IC50 Class.
T1 construct: expressed in transfected cells
T1 sequence (Q13255 19-1194): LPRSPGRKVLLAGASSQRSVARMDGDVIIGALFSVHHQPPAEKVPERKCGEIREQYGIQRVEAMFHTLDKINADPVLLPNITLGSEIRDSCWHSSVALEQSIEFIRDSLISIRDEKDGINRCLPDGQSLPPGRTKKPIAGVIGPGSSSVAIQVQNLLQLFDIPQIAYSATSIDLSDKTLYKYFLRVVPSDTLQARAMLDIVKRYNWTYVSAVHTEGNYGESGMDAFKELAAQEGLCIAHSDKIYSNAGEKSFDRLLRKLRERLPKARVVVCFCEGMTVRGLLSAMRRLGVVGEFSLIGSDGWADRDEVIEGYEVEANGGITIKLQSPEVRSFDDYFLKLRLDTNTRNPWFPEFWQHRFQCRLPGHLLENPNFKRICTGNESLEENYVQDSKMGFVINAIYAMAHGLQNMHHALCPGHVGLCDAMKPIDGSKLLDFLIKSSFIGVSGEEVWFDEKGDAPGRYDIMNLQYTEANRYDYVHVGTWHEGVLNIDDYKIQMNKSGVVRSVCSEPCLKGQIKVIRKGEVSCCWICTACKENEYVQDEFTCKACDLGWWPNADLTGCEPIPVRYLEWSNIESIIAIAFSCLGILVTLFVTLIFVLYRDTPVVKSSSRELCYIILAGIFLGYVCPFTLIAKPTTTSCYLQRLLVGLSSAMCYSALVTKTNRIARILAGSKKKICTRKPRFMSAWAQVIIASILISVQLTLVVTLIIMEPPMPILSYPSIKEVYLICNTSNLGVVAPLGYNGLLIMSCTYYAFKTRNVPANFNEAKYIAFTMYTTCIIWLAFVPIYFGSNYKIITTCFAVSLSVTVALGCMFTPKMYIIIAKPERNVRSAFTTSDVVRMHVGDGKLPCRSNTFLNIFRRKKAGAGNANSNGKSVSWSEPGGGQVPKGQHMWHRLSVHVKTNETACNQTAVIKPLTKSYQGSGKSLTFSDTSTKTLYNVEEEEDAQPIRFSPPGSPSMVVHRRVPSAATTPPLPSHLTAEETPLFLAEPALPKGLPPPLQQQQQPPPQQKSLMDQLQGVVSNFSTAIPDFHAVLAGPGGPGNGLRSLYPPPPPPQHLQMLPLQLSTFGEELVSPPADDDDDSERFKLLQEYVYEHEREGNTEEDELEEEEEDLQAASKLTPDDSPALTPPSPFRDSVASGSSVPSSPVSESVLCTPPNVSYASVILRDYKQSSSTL
Assay type: cell-based
In short: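 CHO cells stably expressing hmGluR1 were kept overnight in DMEM high glucose with GPT and 1 mM pyruvate, then loaded 2 h with Calcium 3 dye.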

Structure (SMILES) | IC50 [nM]
COc1ccnc2sc3c(=O)n(-c4ccc(Cl)cc4)cnc3c12 [28FS] | < 50
CN(C)c1cccc2sc3c(=O)n(-c4ccccc4Cl)cnc3c12 [103G] | > 1000
O=c1c2sc3nccc(NCCO)c3c2ncn1-c1ccc(Br)cc1 [28GA] | < 50
C=CCOc1ccnc2sc3c(=O)n(-c4ccc(Cl)cc4)cnc3c12 [66F] | < 50
Cc1ccc(-n2cnc3c(sc4nccc(NN)c43)c2=O)cc1 [28DK] | 150 to 1000
CC(C)c1ccnc2sc3c(=O)n(-c4ccc(Cl)cc4)cnc3c12 [29J] | < 50
C#CCNc1ccnc2sc3c(=O)n(-c4ccc(Br)cc4)cnc3c12 [28DP] | < 50
CN(CCO)c1ccnc2sc3c(=O)n(-c4ccc5occc5c4)cnc3c12 [28BE] | < 50
CN(C)c1cccc2sc3c(=O)n(-c4cc(F)cc(F)c4)cnc3c12 [103Q] | 150 to 1000
COCCCNc1ccnc2sc3c(=O)n(-c4ccc(OC)cc4)cnc3c12 [28HL] | < 50
COc1c(Br)cnc2sc3c(=O)n(-c4ccc(Cl)cc4)cnc3c12 [28EH] | < 50
C#CC(CC)(CC)Nc1ccnc2sc3c(=O)n(-c4ccc(C)cc4)cnc3c12 [28EU] | 150 to 1000
O=c1c2sc3nccc(NCCCO)c3c2ncn1-c1ccc2c(c1)OCCO2 [28CI] | < 50
CN(C)c1ncnc2sc3c(=O)n(-c4ccc5occc5c4)cnc3c12 [95AP] | < 50
C=C(C)CNc1ncnc2sc3c(=O)n(-c4ccc5scnc5c4)cnc3c12 [95FC] | < 50
CNc1ncnc2sc3c(=O)n(-c4ccc(Cl)cc4)cnc3c12 [95DB] | < 50
C#CCNc1ccnc2sc3c(=O)n(-c4ccc(Cl)cc4)cnc3c12 [28DL] | < 50
Cc1ccc(-n2cnc3c(sc4ncnc(NCC5CC5)c43)c2=O)cc1 [95DP] | 50 to 150
C#CC(C)Nc1ccnc2sc3c(=O)n(-c4ccc(OC)cc4)cnc3c12 (centres unmarked) [28FA] | 150 to 1000
CN(CCO)c1ccnc2sc3c(=O)n(-c4ccc(F)cc4)cnc3c12 [28HH] | 50 to 150
O=c1c2sc3ncnc(NCC(F)(F)F)c3c2ncn1-c1ccc(Cl)cc1 [95EF] | < 50
COCCn1cnc2c(sc3ncnc(NC4CCC4)c32)c1=O [95DW] | > 1000
CON(C)c1ccnc2sc3c(=O)n(-c4ccc(Cl)cc4)cnc3c12 [28DN] | < 50
O=c1c2sc3nccc(CC4CC4)c3c2ncn1-c1ccc(Cl)cc1 [compound 179] | 150 to 1000
C#CCNc1ncnc2sc3c(=O)n(-c4ccc(OC)cc4F)cnc3c12 [95EJ] | 50 to 150

Structure (SMILES) | IC50 [nM]
Cc1ccc(-n2cnc3c(sc4nc(C(F)(F)F)nc(N)c43)c2=O)cc1 [71E] | > 1000
CCCCOc1ncnc2sc3c(=O)n(-c4ccc(OC)cc4)cnc3c12 [compound 191] | > 1000
COc1ccc(-n2cnc3c(sc4nc(C)nc(N)c43)c2=O)cc1 [95EU] | 150 to 1000
C=C(C)CNc1ncnc2sc3c(=O)n(-c4ccc(F)cc4)cnc3c12 [95FI] | < 50
O=c1c2sc3nccc(NC4CC4)c3c2ncn1-c1cccc(F)c1 [28CN] | < 50
CN(C)c1ccnc2sc3c(=O)n(-c4ccc(C5CC5)c(F)c4)cnc3c12 [137G] | < 50
O=c1c2sc3ncnc(NC4CC4)c3c2ncn1-c1ccc(C2CC2)cc1 [137C] | 50 to 150
COc1ccc(-n2cnc3c(sc4nc(N)cc(N(C)C)c43)c2=O)cc1 [59F] | < 50
CN(C)c1cccc2sc3c(=O)n(-c4ccc(F)c(F)c4)cnc3c12 [103P] | 150 to 1000
COc1ccc(-n2cnc3c(sc4ncnc(NCc5ccco5)c43)c2=O)cc1 [95GQ] | 150 to 1000
CCNc1ncnc2sc3c(=O)n(-c4ccc5ncsc5c4)cnc3c12 [95BK] | < 50
CCOC(=O)C1CCCC(n2cnc3c(sc4nccc(OC)c43)c2=O)C1 (centres unmarked) [28EK] | > 1000
O=c1c2sc3nccc(Oc4ccccc4)c3c2ncn1-c1ccc(Cl)cc1 [compound 176] | > 1000
COc1ccc(Nc2ncnc3sc4c(=O)n(-c5ccc(C)cc5)cnc4c23)cc1 [95GJ] | 50 to 150
CNc1ncnc2sc3c(=O)n(-c4ccc(OC)cc4F)cnc3c12 [95BI] | < 50
Cc1ccc(-n2cnc3c(sc4ncc(I)c(N)c43)c2=O)cc1 [compound 175] | < 50
C#CCNc1ncnc2sc3c(=O)n(-c4ccc(Cl)cc4)cnc3c12 [95EG] | < 50
CC(C)Nc1ccnc2sc3c(=O)n(-c4ccc(Br)cc4)cnc3c12 [28HD] | 150 to 1000
CN(C)c1ccnc2sc3c(=O)n(-c4cccc(F)c4)cnc3c12 [28CP] | < 50
O=c1c2sc3nccc(OCCO)c3c2ncn1-c1ccc(Cl)cc1 [66H] | > 1000
C#CCOc1ccnc2sc3c(=O)n(-c4ccc(Cl)cc4)cnc3c12 [66G] | < 50
O=c1c2sc3nccc(NCCCO)c3c2ncn1-c1ccc(F)cc1 [28GP] | < 50
COc1ccc(-n2cnc3c(sc4nc(N)cc(NC5CC5)c43)c2=O)cc1 [59G] | < 50
CCNc1ccnc2sc3c(=O)n(-c4cccc(Cl)c4)cnc3c12 [28CD] | < 50

Same assay, conditions: against Quisqualate 1 μM (EC80), FLIPR calcium mobilization, read-out: mGluR1 IC50

Structure (SMILES) | IC50 [nM]
C#CCNc1ccnc2sc3c(=O)n(-c4ccc(Br)cc4)cnc3c12 [28DP] | 1.75
CN(C)c1ncnc2sc3c(=O)n(-c4ccc5occc5c4)cnc3c12 [95AP] | 1.6
C#CCNc1ccnc2sc3c(=O)n(-c4ccc(Cl)cc4)cnc3c12 [28DL] | 0.91
Cc1ccc(-n2cnc3c(sc4nccc(NCC#N)c43)c2=O)cc1 [28AA] | 1.81
Cc1ccc(-n2cnc3c(sc4nccc(N(C)C)c43)c2=O)cc1F [7DH] | 2.02
CNc1ncnc2sc3c(=O)n(-c4ccc(OC)cc4F)cnc3c12 [95BI] | 28.3
Cc1ccc(-n2cnc3c(sc4ncc(I)c(N)c43)c2=O)cc1 [compound 175] | 0.76

Same assay, conditions: against Quisqualate 1 μM (EC80), class symbols, read-out: mGIuR 1 IC50

Structure (SMILES) | IC50 [nM]
CN(C)c1ccnc2sc3c(=O)n(NC(=O)C(F)(F)F)c(C(F)(F)F)nc3c12 [65B] | > 1000
CN(C)c1cc(C#N)nc2sc3c(=O)n(C4CCCCC4)cnc3c12 [compound 84] | 50 to 150
CN(C)c1cc(N2CCCC2)nc2sc3c(=O)n(C4CCCCC4)cnc3c12 [compound 85] | > 1000
CNc1ccnc2sc3c(=O)n(-c4ccc(OC)cc4)cnc3c12 [28I] | < 50
COCCn1cnc2c(sc3nccc(N(C)C)c32)c1=O [15D] | > 1000
CN(C)c1ccnc2sc3c(=O)n(-c4ccc5c(c4)CC=C5)cnc3c12 [7BL] | < 50
O=c1c2sc3nccc(NC4Cc5ccccc5C4)c3c2ncn1C1CCCCC1 [72D] | > 1000
CCCCc1nc2c(sc3nccc(N(C)C)c32)c(=O)n1-c1ccc(OC)cc1 [116G] | 150 to 1000
COc1ccc(-n2cnc3c4c(N(C)C)ccnc4n(C)c3c2=O)cc1 [134B] | 150 to 1000
CN(C)c1ccnc2sc3c(=O)n(-c4ccc5[nH]ncc5c4)cnc3c12 [7AN] | 150 to 1000
Cc1ccc(-n2cnc3c(sc4nccc(N(C)C)c43)c2=O)cc1 [7BF] | < 50
CNc1ccnc2sc3c(=O)n(-c4ccccc4)c(C)nc3c12 [113E] | < 50
CN(C)c1ncnc2sc3c(=O)n(-c4ccc5c(c4)CCO5)cnc3c12 [95E] | < 50
CCCn1cnc2c(sc3nccc(N(C)C)c32)c1=O [15L] | > 1000
O=c1c2sc3nccc(N4CCC4)c3c2ncn1C1CCCCC1 [28V] | 150 to 1000
C=CCN(C)c1ccnc2sc3c(=O)n(-c4ccc(C)cc4)cnc3c12 [28AC] | < 50
CN(C)c1cncc2sc3c(=O)n(-c4ccccc4)cnc3c12 [37D] | 150 to 1000
CCCN(C)c1ccnc2sc3c(=O)n(-c4ccc(C)cc4)cnc3c12 [28AT] | < 50

Structure (SMILES) | IC50 [nM]
CCCCn1cnc2c(sc3nccc(N(C)C)c32)c1=O [7P] | 50 to 150
CN(C)c1ccnc2sc3c(=O)n(-c4cccc(O)c4)cnc3c12 [7AV] | < 50
Cc1cc(N(C)C)c2c(n1)sc1c(=O)n(C3CCCCC3)cnc12 [7CZ] | < 50
COc1ccccc1-n1cnc2c(sc3nc(N4CCOCC4)c4c(c32)CC(C)(C)OC4)c1=O [P-5] | 150 to 1000
Cc1ccc(-n2cnc3c(sc4nccc(NC[C@@H](C)O)c43)c2=O)cc1 [29A] | 150 to 1000
Cc1ccc(-n2cnc3c(sc4nccc(NCC#N)c43)c2=O)cc1 [28AA] | < 50
COc1ccc(-n2cnc3c(sc4nccc(N(C)C)c43)c2=O)cn1 [7BW] | < 50
Cc1ccc(-n2cnc3c(sc4nccc(N(C)C)c43)c2=O)cc1F [7DH] | < 50
CN(C)c1ccnc2sc3c(=O)n(Cc4ccc(Cl)cc4)cnc3c12 [7I] | > 1000
O=c1c2sc3nc(Cl)ccc3c2ncn1-c1ccccc1 [compound 14] | > 1000
CCCc1nc2c(sc3nccc(N(C)C)c32)c(=O)n1-c1ccc(OC)cc1 [116F] | 150 to 1000
CN(C)c1ccnc2sc3c(=O)n(Cc4ccccc4)cnc3c12 [7C] | 50 to 150
CCCNc1ccnc2sc3c(=O)n(C4CCCCC4)cnc3c12 [28Q] | 50 to 150
Cc1ccc(-n2c(C)nc3c(sc4nccc(N(C)C)c43)c2=O)cc1 [113A] | < 50
CN(C)c1ccnc2c1c1ncn(-c3ccc4ncsc4c3)c(=O)c1n2C [134E] | > 1000
Cc1cc(-n2cnc3c(sc4nccc(N(C)C)c43)c2=O)ccc1I [7EA] | < 50
Cc1ccc(-n2cnc3c(sc4nc(-c5cccs5)cc(C(F)(F)F)c43)c2=O)cc1 [P-13] | 150 to 1000
CN(C)c1ccnc2sc3c(=O)n(-c4nncs4)cnc3c12 [15X] | > 1000
